From patent US20250026766A1, “Thiazolopyridyl Amide Derivatives as DNA Polymerase Theta Inhibitors” (BeiGene, Ltd., priority 2022, published 2025)

Target: Pol Theta (1-894) (Homo sapiens (Human), UniProt O75417)
Assay: Biochemical Pol Theta (1-894) ATPase IC50 assay (ADP-Glo, ssDNA substrate)
Conditions: ADP-Glo assay with ssDNA substrate, room temperature
Description: Baculovirus Expression of Human POL theta (1-894)
Human POL Theta (1-894)-His-pFastBac1 baculovirus samples were generated using the Bac-to-Bac baculovirus expression system (Invitrogen) according to the manufacturer's protocol. […] Baculovirus amplification was achieved using infected SF9 cells at 1:2000 virus/cells ratios, and grown for 96 hours at 27° C. post-transfection. The expression scaled up for each protein was carried out in the flask 3 L from CORNING. 4 L of 3×10^6 cells/mL Sf9 cells (Expression System, Invitrogen) grown in SF900TM II SFM insect medium (Expression System) were infected with virus stock at 1:200 virus/cell ratios, and grown for 48 hours at 27° C. post-transfection. The infected cell culture was harvested by centrifugation at 6000 rpm for 15 min 4° C. in a SORVALL LYNX6000 centrifuge. The cell pellets were stored at −80° C.
The human POL Theta (1-894)-His produced as described above, were purified from Sf9 baculovirus-infected insect cell paste. The cells were lysed using sonication method, and the lysates were clarified by centrifugation.
Enzymatic reactions of Pol Theta (1-894) were performed using ADP-Glo assay with ssDNA substrate. Pol Theta (1-894) was expressed in baculovirus expression system. The inhibition activities testing for the compound disclosed herein were carried out at room temperature in assay buffer containing 40 mM Tris pH 7.5, 20 mM MgCl2, 1 mM DTT, 0.01% BSA and 0.05% Tween-20. Compounds in DMSO were dispensed into wells of a black 384 well plate (Corning 4514) using D300e digital dispenser (Tecan). The ranges of compounds final concentration were 2.62 nM˜10000 nM. 3 μL 2× enzyme solution containing 12.5 nM enzyme was added to wells. […] After 1 hour reaction, 5 μL ADP-Glo reagent (Promga V9102) was added and incubated for 40 minutes. 10 μL Kinase Detection reagent was added and incubated for 40 minutes. Luminescence was measured on a microplate reader (PHERAstar FSX, BMG labtech). The IC50 values were calculated based on inhibition of enzyme activity in the presence of increasing concentrations of compounds.

Sequence of Pol Theta (1-894) (O75417 1-894): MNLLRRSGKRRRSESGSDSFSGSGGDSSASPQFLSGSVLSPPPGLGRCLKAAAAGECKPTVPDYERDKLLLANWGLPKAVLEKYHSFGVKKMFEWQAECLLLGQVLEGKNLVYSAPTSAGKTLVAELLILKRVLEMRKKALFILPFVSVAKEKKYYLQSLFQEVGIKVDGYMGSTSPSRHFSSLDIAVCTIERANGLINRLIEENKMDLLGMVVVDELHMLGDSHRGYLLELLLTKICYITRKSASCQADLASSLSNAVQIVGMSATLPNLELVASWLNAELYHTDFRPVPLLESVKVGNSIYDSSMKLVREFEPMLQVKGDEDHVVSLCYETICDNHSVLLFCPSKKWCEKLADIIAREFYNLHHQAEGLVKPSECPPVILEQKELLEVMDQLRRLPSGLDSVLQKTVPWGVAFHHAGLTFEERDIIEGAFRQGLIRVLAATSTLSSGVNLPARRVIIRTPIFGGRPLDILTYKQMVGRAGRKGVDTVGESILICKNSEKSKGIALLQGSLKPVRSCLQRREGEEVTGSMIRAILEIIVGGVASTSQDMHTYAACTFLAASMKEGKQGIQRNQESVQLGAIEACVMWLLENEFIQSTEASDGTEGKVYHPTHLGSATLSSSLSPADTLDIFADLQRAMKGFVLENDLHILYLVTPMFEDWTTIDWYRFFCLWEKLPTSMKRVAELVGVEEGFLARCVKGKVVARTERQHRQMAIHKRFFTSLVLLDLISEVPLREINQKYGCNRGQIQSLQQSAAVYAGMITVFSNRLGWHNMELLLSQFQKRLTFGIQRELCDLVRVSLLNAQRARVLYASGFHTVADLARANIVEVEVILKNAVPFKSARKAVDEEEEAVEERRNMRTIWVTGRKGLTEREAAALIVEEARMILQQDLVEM

Compound | IC50 [nM]
COc1ccc(C(N)=O)cc1-c1cc(C)ncc1C(=O)Nc1nc2ccc(-c3ccc(NC(C)=O)cc3)nc2s1 [Example 26, N-(5-(4-acetamidophenyl)thiazolo[5,4-b]pyridin-2-yl)-4-(5-carbamoyl-2-methoxyphenyl)-6-methylnicotinamide] | 189
CCC(=O)Nc1ccc(-c2ccc3nc(NC(=O)c4cnc(C)cc4-c4cc(C#N)ccc4OC)sc3n2)cc1 [Example 41, 4-(5-cyano-2-methoxyphenyl)-6-methyl-N-(5-(4-propionamidophenyl)thiazolo[5,4-b]pyridin-2-yl)nicotinamide] | 91
COc1ccc(C#N)cc1-c1cc(C)ncc1C(=O)Nc1nc2ccc(-c3ccc(Cl)cc3)nc2s1 [Example 8, N-(5-(4-chlorophenyl)thiazolo[5,4-b]pyridin-2-yl)-4-(5-cyano-2-methoxyphenyl)-6-methylnicotinamide] | 12
Cc1cc(-c2cccc3c2OCC(=O)N3)c(C(=O)Nc2nc3ccc(-c4ccc(C#N)cc4)nc3s2)cn1 [Example 70, N-(5-(4-cyanophenyl)thiazolo[5,4-b]pyridin-2-yl)-6-methyl-4-(3-oxo-3,4-dihydro-2H-benzo[b][1,4]oxazin-8-yl)nicotinamide] | 193
Cc1cc(-c2cccc3[nH]ncc23)c(C(=O)Nc2nc3ccc(-c4ccc(C#N)cc4)nc3s2)cn1 [Example 61, N-(5-(4-cyanophenyl)thiazolo[5,4-b]pyridin-2-yl)-4-(1H-indazol-4-yl)-6-methylnicotinamide] | 121
COc1ccc(C#N)cc1-c1cc(C)ncc1C(=O)Nc1nc2ccc(-c3ccc(C#N)c(C)c3)nc2s1 [Example 166, 4-(5-cyano-2-methoxyphenyl)-N-(5-(4-cyano-3-methylphenyl)thiazolo[5,4-b]pyridin-2-yl)-6-methylnicotinamide] | 13
Cc1cc(-c2ccccc2C#N)c(C(=O)Nc2nc3ccc(-c4ccc(C#N)cc4)nc3s2)cn1 [Example 53, 4-(2-cyanophenyl)-N-(5-(4-cyanophenyl)thiazolo[5,4-b]pyridin-2-yl)-6-methylnicotinamide] | 78
CCNC(=O)c1ccc(-c2ccc3nc(NC(=O)c4cnc(C)cc4-c4cc(C#N)ccc4OC)sc3n2)cc1 [Example 73, 4-(5-cyano-2-methoxyphenyl)-N-(5-(4-(ethylcarbamoyl)phenyl)thiazolo[5,4-b]pyridin-2-yl)-6-methylnicotinamide] | 15
COc1ccc(C#N)cc1-c1cc(C)ncc1C(=O)Nc1nc2ccc(-c3ccc(OC4CNC4)cc3)nc2s1 [Example 170, N-(5-(4-(azetidin-3-yloxy)phenyl)thiazolo[5,4-b]pyridin-2-yl)-4-(5-cyano-2-methoxyphenyl)-6-methylnicotinamide] | 26
COc1ccc(C#N)cc1-c1cc(C(F)(F)F)ncc1C(=O)Nc1nc2ccc(-c3ccc(C#N)cc3)nc2s1 [Example 37, 4-(5-cyano-2-methoxyphenyl)-N-(5-(4-cyanophenyl)thiazolo[5,4-b]pyridin-2-yl)-6-(trifluoromethyl)nicotinamide] | 151
COc1ccc(C#N)cc1-c1cc(C)ncc1C(=O)Nc1nc2ccc(CCc3ccc(Cl)cc3)nc2s1 [Example 107, N-(5-(4-chlorophenethyl)thiazolo[5,4-b]pyridin-2-yl)-4-(5-cyano-2-methoxyphenyl)-6-methylnicotinamide] | 17
Cc1cc(-c2ccc(=O)n(C)c2C)c(C(=O)Nc2nc3ccc(-c4ccc(C#N)cc4)nc3s2)cn1 [Example 120, N-(5-(4-cyanophenyl)thiazolo[5,4-b]pyridin-2-yl)-1,2,6′-trimethyl-6-oxo-1,6-dihydro-[3,4′-bipyridine]-3′-carboxamide] | 7.9
COc1ccc(C#N)cc1-c1cc(C)ncc1C(=O)Nc1nc2ccc(-c3ccc(C#N)cc3)nc2s1 [Example 19, 4-(5-cyano-2-methoxyphenyl)-N-(5-(4-cyanophenyl)thiazolo[5,4-b]pyridin-2-yl)-6-methylnicotinamide] | 8.5
COc1ccc(C#N)cc1-c1cc(C)ncc1C(=O)Nc1nc2ccc(-c3ccc(NS(C)(=O)=O)c(F)c3)nc2s1 [Example 90, 4-(5-cyano-2-methoxyphenyl)-N-(5-(3-fluoro-4-(methylsulfonamido)phenyl)thiazolo[5,4-b]pyridin-2-yl)-6-methylnicotinamide] | 4.1
COc1ccc(C#N)cc1-c1cc(C)ncc1C(=O)Nc1nc2ccc(-c3ccc(C(=O)N(C)C)cc3)nc2s1 [Example 86, 4-(5-cyano-2-methoxyphenyl)-N-(5-(4-(dimethylcarbamoyl)phenyl)thiazolo[5,4-b]pyridin-2-yl)-6-methylnicotinamide] | 7.4

Second part, the molecule after the results:

IC50 [nM] | Compound
16 | COc1ccccc1-c1cnncc1C(=O)Nc1nc2ccc(-c3ccc(C(=O)N(C)C)cc3)nc2s1 [Example 92, N-(5-(4-(dimethylcarbamoyl)phenyl)thiazolo[5,4-b]pyridin-2-yl)-5-(2-methoxyphenyl)pyridazine-4-carboxamide]
54 | COc1ccc(F)cc1-c1cc(C)ncc1C(=O)Nc1nc2ccc(-c3ccc(NC(C)=O)cc3)nc2s1 [Example 25, N-(5-(4-acetamidophenyl)thiazolo[5,4-b]pyridin-2-yl)-4-(5-fluoro-2-methoxyphenyl)-6-methylnicotinamide]
33 | COc1ccc(C#N)cc1-c1cnccc1C(=O)Nc1nc2ccc(-c3ccc(NC(C)=O)cc3)nc2s1 [Example 22, N-(5-(4-acetamidophenyl)thiazolo[5,4-b]pyridin-2-yl)-3-(5-cyano-2-methoxyphenyl)isonicotinamide]
361 | COc1ccc(C#N)cc1-c1cc(C)ncc1C(=O)Nc1nc2ccc(N3CCOCC3)nc2s1 [Example 60, 4-(5-cyano-2-methoxyphenyl)-6-methyl-N-(5-morpholinothiazolo[5,4-b]pyridin-2-yl)nicotinamide]
17 | COc1ccccc1-c1cnncc1C(=O)Nc1nc2ccc(OCC3CCCO3)nc2s1 (centres unmarked) [Example 118, 5-(2-methoxyphenyl)-N-(5-((tetrahydrofuran-2-yl)methoxy)thiazolo[5,4-b]pyridin-2-yl)pyridazine-4-carboxamide]
23 | COc1ccccc1-c1cnncc1C(=O)Nc1nc2ccc(Oc3ccc(Cl)c(C)c3)nc2s1 [Example 129, N-(5-(4-chloro-3-methylphenoxy)thiazolo[5,4-b]pyridin-2-yl)-5-(2-methoxyphenyl)pyridazine-4-carboxamide]
62 | COc1ccc(C(F)(F)F)cc1-c1cc(C)ncc1C(=O)Nc1nc2ccc(-c3ccc(NC(C)=O)cc3)nc2s1 [Example 24, N-(5-(4-acetamidophenyl)thiazolo[5,4-b]pyridin-2-yl)-4-(2-methoxy-5-(trifluoromethyl)phenyl)-6-methylnicotinamide]
167 | COc1ccccc1-c1cnncc1C(=O)Nc1nc2ccc(C(=O)NC3CCOCC3)nc2s1 [Example 113, 2-(5-(2-methoxyphenyl)pyridazine-4-carboxamido)-N-(tetrahydro-2H-pyran-4-yl)thiazolo[5,4-b]pyridine-5-carboxamide]
44 | COc1ccccc1-c1cnncc1C(=O)Nc1nc2ccc(C(=O)N3CCOCC3)nc2s1 [Example 124, 5-(2-methoxyphenyl)-N-(5-(morpholine-4-carbonyl)thiazolo[5,4-b]pyridin-2-yl)pyridazine-4-carboxamide]
206 | Cn1nccc1-c1ccc2nc(NC(=O)c3ccc(C#N)nc3N3CCOCC3)sc2n1 [Example 15, 6-cyano-N-(5-(1-methyl-1H-pyrazol-5-yl)thiazolo[5,4-b]pyridin-2-yl)-2-morpholinonicotinamide]
324 | COc1ccccc1-n1cncc1C(=O)Nc1nc2ccc(-c3ccc(Cl)cc3)nc2s1 [Example 12, N-(5-(4-chlorophenyl)thiazolo[5,4-b]pyridin-2-yl)-1-(2-methoxyphenyl)-1H-imidazole-5-carboxamide]
143 | COc1ccccc1-c1cc(C)ncc1C(=O)Nc1nc2ccc(-c3ccc(Cl)cc3)nc2s1 [Example 14, N-(5-(4-chlorophenyl)thiazolo[5,4-b]pyridin-2-yl)-4-(2-methoxyphenyl)-6-methylnicotinamide]
7.7 | COc1ccccc1-c1cnncc1C(=O)Nc1nc2ccc(-c3ccc(S(C)(=O)=O)cc3)nc2s1 [Example 81, 5-(2-methoxyphenyl)-N-(5-(4-(methylsulfonyl)phenyl)thiazolo[5,4-b]pyridin-2-yl)pyridazine-4-carboxamide]
11 | COc1ccccc1-c1cnncc1C(=O)Nc1nc2ccc(-c3ccc(NC(=O)CO)cc3)nc2s1 [Example 111, N-(5-(4-(2-hydroxyacetamido)phenyl)thiazolo[5,4-b]pyridin-2-yl)-5-(2-methoxyphenyl)pyridazine-4-carboxamide]
